Here are results for three compounds from US9629848B2, “Compounds that modulate autoimmunity and methods of using the same” (The Regents of the University of Colorado, a body corporate, priority 2011, dated 2017).

Data set [1] deals with 5KC cells transduced with a 4-8 TCR. Kind of data set: Endogenous insulin presentation: whole insulin with I-A^g^7 splenocytes and 4-8 TCR transduced 5KC cells. The class given is cell-based, mouse. Here is the method: (§1) The ability of the small molecules to block endogenous insulin presentation was tested. Incubation of whole insulin with I-A^g^7 containing splenocytes activates 5KC cells (T cell hybridoma lacking endogenous TCRα and β chains) transduced with a 4-8 TCR. […] To document direct effects of these small molecules on inhibiting peptide binding to I-A^g^7, an I-A^g^7 protein construct was expressed in baculovirus with a linked peptide. The flexible linker contained a thrombin cleavage site, allowing for thrombin cleavage of the linker and release of the peptide.

Data set [2] concerns isolated whole islets from an adult non-diabetic NOD mouse. Kind of data set: TCR response to isolated whole islets. It is filed as cell-based. The conditions noted are these: islets containing beta cells. Here is the method: as §1
Another data set has as its system I-A^g^7. Nature of the data set: Soluble binding assay, B:9-23 peptide to empty I-A^g^7. Set-up: species or system mouse. The settings on record: dose dependent.
Data set [3] relates to human T cell receptor recognizing insulin B:9-23 presented by human DQ8. Kind of data set: Inhibition of human T cell receptor recognizing insulin B:9-23 presented by human DQ8. It is filed as cell-based. An excerpt: Using a TCR sequence obtained from a T cell line generated from the peripheral blood of a diabetic individual with DQ8 molecule, a TCR was identified that is DQ8 restricted and responds to the insulin B:9-23 peptide.
Molecules predicted to occupy pockets 1 and 9 of the human DQ8 peptide binding groove were identified using in silico molecular docking program. The top scoring compounds for each pocket were screened for their ability to inhibit anti-B:9-23 T cell responses. FIGS. 9A and 9B represent the results of the T cell stimulation assay for compounds occupying pocket 1 and pocket 9 of the human DQ8 peptide binding groove, respectively.

In data set [4] the test system is T cell response to the autoantigen, amino acids 9-23 in the B chain of insulin. Nature of the data set: Inhibition of T cell response to insulin B chain amino acids 9-23. It is filed as cell-based, mouse. An excerpt:
(§2) This molecule inhibited the insulin presentation to T cells capable of causing diabetes in mice and T cells responding to insulin in humans. […] Specificity was shown by using the molecule to inhibit tetramer binding (I-A^g^7 complexed to insulin peptides) to T cells.

The test system of data set [5] is I-A^g^7 complexed to insulin peptides. Nature of the data set: Tetramer staining, I-A^g^7 complexed to insulin peptides. It is filed as cell-based, mouse.
Source text: as §2

Data set [6] has as its target T1, I-A^b complexed to a 3K peptide (Mus musculus, UniProt P14434+P14483).
T1 sequence (P14434 24-218 limits assumed): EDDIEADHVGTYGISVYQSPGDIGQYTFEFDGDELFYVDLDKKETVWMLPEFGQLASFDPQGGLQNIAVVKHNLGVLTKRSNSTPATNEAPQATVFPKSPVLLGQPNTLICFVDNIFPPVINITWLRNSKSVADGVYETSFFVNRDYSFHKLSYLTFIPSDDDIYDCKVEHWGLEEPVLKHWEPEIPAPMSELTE
T1 sequence (P14483 28-226 limits assumed): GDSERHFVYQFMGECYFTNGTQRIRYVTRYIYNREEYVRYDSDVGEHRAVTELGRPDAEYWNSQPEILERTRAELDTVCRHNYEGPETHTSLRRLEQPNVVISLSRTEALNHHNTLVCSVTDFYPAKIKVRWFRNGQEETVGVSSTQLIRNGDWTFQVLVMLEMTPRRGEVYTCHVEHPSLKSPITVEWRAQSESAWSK
Nature of the data set: Tetramer staining, I-A^b complexed to a 3K peptide. The class given is cell-based. The settings on record: specificity control.

A further data set deals with NOD mice. Nature of the data set: Insulin autoantibody production and diabetes onset in NOD mice. The class given is in vivo, mouse. The settings on record: 20 mg/kg IP daily from 4 to 12 weeks of age. Here is the method:
To test the efficacy of this molecule in vivo, Jackson NOD mice were treated with TATD at a dose of 20 mg/kg IP daily starting at 4 weeks of age. Treatment ceased at 12 weeks of age. Insulin autoantibody (IAA) was measured before treatment at 8, 10, 12, 16, 20, and 24 weeks of age.

For data set [7], the system named is clone 5 TCR transfectomas, insulin B:13-23 antigen. Nature of the data set: Ex vivo biomarker assay in DQ8 humanized mice, clone 5 TCR transfectomas with insulin B:13-23. The procedure:
(§3) TATD was further evaluated in humanized DQ8 mice. These mice are on a NOD background, I-A null, and contain transgenes for DQ8 and human CD4 (NOD, I-A^g^7 null, DQ8 transgene, Rag KO). TATD was used to develop a rapid ex vivo biomarker assay to monitor the effects of small molecules on antigen presentation in DQ8 humanized mice. To identify a biomarker, mice were treated in vivo with TATD (either by intraperitoneal injection or gastric gavage) and isolated splenocytes or peripheral blood mononuclear cells (PBMCs) were used to monitor antigen presentation to DQ8 restricted T cell receptor (TCR) transfectomas.
(§4) Using this biomarker assay, DQ8 humanized mice were treated with a single intraperitoneal dose of TATD (20 mg/kg) and then sacrificed 2 hours later. Splenocytes from treated mice were cultured with the insulin B:13-23 antigen in the presence of clone 5 TCR transfectomas, or deamidated α-gliadin in the presence of the 489 TCR transfectoma. No TATD was added in vitro to the stimulation assays. Control mice received IP injections of PBS (the vehicle in which TATD is dissolved).

Data set [8] has as its system 489 TCR transfectoma, deamidated α-gliadin. Nature of the data set: Ex vivo biomarker assay in DQ8 humanized mice, 489 TCR transfectoma with deamidated α-gliadin. The conditions noted are these: pooled PBMCs from treated mice. Here is the method:
as §3, §4

Data set [9] concerns DQ8 restricted T cell receptor (TCR) transfectomas. Kind of data set: Ex vivo biomarker assay in DQ8 humanized mice, duration and oral route.
The next data set relates to Anti-CD3 stimulation. Kind of data set: Anti-CD3 stimulation control in ex vivo biomarker assay. More on the design: species or system DQ8 humanized mice. The conditions noted are these: mouse. Here is the method:
The IL-2 response from the TCR transfectomas using splenocytes harvested within 2 hours from TATD treated mice was abrogated compared to PBS treated controls (FIGS. 13A and 13B). Anti-CD3 stimulation was not inhibited in the presence of TATD.

A further data set concerns the target DQ8 (Homo sapiens, UniProt P01909+P01920, A209T/A45G/C70Q/D89A/DUP78-78/E183D/E77G/F237L/G63E/H199R/I129T/K197E/L178F/L74F/L98V/Q57E/Q76R/S185I/S97I/T217I/T49S/V73L/Y58L). Nature of the data set: Competitive binding assay B:9-23 to DQ8.
A further data set has as its system BDC 2.5 T cell hybridoma. Kind of data set: Chromogranin peptide mimotope presentation by I-A^g^7 to BDC 2.5 T cell hybridoma. It is filed as cell-based, mouse. The settings on record: specificity test.

The term IC50 denotes the concentration needed to halve the response being measured.

Each structure is given as a SMILES string.

Turning to `C1CN2CN3CCN(CN1C3)C2` [TATD, 1,3,6,8-tetraazatricyclo (4.4.1.1(3,8)) dodecane], in data set [1], the “Inhibition of endogenous antigen presentation of whole insulin by antigen presenting cells” value is reported as “able to inhibit endogenous antigen presentation”. Moreover, the “Inhibition of TCR response to whole islets” value in data set [2] is reported as “able to inhibit endogenous antigen presentation”. For the same compound, in the data set with I-A^g^7, the “Inhibition of B:9-23 peptide binding to I-A^g^7” value is recorded as “block peptide binding”. Further, the “Concentration inhibiting antigen presentation by human DQ8 to T cells involved in type 1 diabetes” value in [3] is reported as “low nanomolar”. For the same compound, the “Concentration inhibiting T cell response to insulin B:9-23” value in data set [4] was “low nanomolar”. The “Tetramer staining of T cells recognizing insulin B:9-23 presented by I-A^g^7” value in data set [5] is recorded as “inhibited tetramer staining”. Besides, the “T cell staining with I-A^b / 3K peptide tetramer” value in [6] is “did not alter T cell staining”. Besides, the Diabetes onset result with NOD mice was “prevents diabetes onset”. In addition, in the data set on NOD mice (IAA up to 24 weeks), the “Insulin autoantibody (IAA) formation” value was “blocks IAA formation”. The “Clone 5 response to insulin B:13-23 presented by PBMCs” value in data set [7] (pooled PBMCs from treated mice) is on record as “blocked”. In addition, the “IL-2 response of clone 5 TCR transfectomas, splenocytes” value in data set [7] (single 20 mg/kg IP dose, splenocytes harvested within 2 hours, vs PBS controls) was “abrogated”. For the same compound, the “489 TCR transfectoma response to deamidated α-gliadin presented by PBMCs” value in data set [8] is “the same response is seen”. Moreover, in data set [9] (gastric gavage), the “Blocking IL-2 production from the TCR transfectomas” value is listed as “effective at blocking IL-2 production” and the Oral absorption result was “orally absorbed”. Besides, in data set [9] (single dose), the “Duration of effects on antigen presentation” value is recorded as 7 days. Moreover, the Anti-CD3 stimulation result in the data set with Anti-CD3 stimulation is given as “not inhibited”. In addition, on DQ8, the “Block of peptide binding to DQ8” value is “block peptide binding” and the IC50 amounted to 4.5e-06 µM.

As for `O=[PH](O)C(O)c1ccccc1` (stereo not shown) [p6:17], the “Inhibition of chromogranin presentation to the BDC 2.5 hybridoma” value in the data set on BDC 2.5 T cell hybridoma is recorded as “no inhibition”. Further, the half-inhibitory concentration (IC50) on DQ8 is over 100 µM.

Take `CN(C)C(Cl)(N(C)C)C(Cl)(N(C)C)N(C)C` [p6:18]: the “IC50 for blocking T cell stimulation from endogenously processed insulin” value in data set [1] (whole insulin with I-A^g^7 containing splenocytes) is recorded as “low nanomolar”. In addition, the IC50 on DQ8 is over 100 µM.
